Source: ChEMBL document CHEMBL1127090, “In vitro cytotoxicity of GC sequence directed alkylating agents related to distamycin” (J Med Chem, 1993)

Columns and labels:
[1] = system: K562; test: Inhibitory activity against K-562 (human chronic myeloid Leukemia) cells; format: functional, cell-based
[2] = system: Nucleic Acid; test: Apparent binding constant to poly (dA.dT) DNA was evaluated by measuring the loss of ethidium fluorescence; format: nucleic-acid assay
[3] = system: K562; test: Cytotoxicity against the K-562 Leukemia cell line from human cancer.; format: functional; details: read-out: LC50 (the source's name)
[4] = system: OVCAR-3; test: Cytotoxicity against the OVCAR-3 Ovarian Cancer cell line from human cancer.; format: functional; details: read-out: LC50 (the source's name)
[5] = system: COLO 205; test: Cytotoxicity against the COLO-205 Colon Cancer cell line from human cancer.; format: functional; details: read-out: LC50 (the source's name)
[6] = system: SK-MEL-28; test: Cytotoxicity against the SK-MEL-28 Melanoma cell line from human cancer.; format: functional; details: read-out: LC50 (the source's name)
[7] = system: KM12; test: Cytotoxicity against the KM12 Colon Cancer cell line from human cancer.; format: functional; details: read-out: LC50 (the source's name)
[8] = system: SK-OV-3; test: Cytotoxicity against the SK-OV-3 Ovarian Cancer cell line from human cancer.; format: functional; details: read-out: LC50 (the source's name)
[9] = system: M19-MEL; test: Cytotoxicity against the M19-MEL Melanoma cell line from human cancer.; format: functional; details: read-out: LC50 (the source's name)
[10] = system: OVCAR-4; test: Cytotoxicity against the OVCAR-4 Ovarian Cancer cell line from human cancer.; format: functional; details: read-out: LC50 (the source's name)
[11] = system: U-251; test: Cytotoxicity against the U251 CNS Cancer cell line from human cancer.; format: functional; details: read-out: LC50 (the source's name)
[12] = system: Nucleic Acid; test: Apparent binding constant to poly (dG.dC) DNA was evaluated by measuring the loss of ethidium fluorescence; format: nucleic-acid assay
[13] = system: MOLT-4; test: Cytotoxicity against the Molt-4 Leukemia cell line from human cancer.; format: functional; details: read-out: LC50 (the source's name)
[14] = system: Malme-3M; test: Cytotoxicity against the MALME-3M Melanoma cell line from human cancer.; format: functional; details: read-out: LC50 (the source's name)
[15] = system: HCC 2998; test: Cytotoxicity against the HCC2998 Colon Cancer cell line from human cancer.; format: functional; details: read-out: LC50 (the source's name)
[16] = system: SK-MEL-2; test: Cytotoxicity against the SK-MEL-2 Melanoma cell line from human cancer.; format: functional; details: read-out: LC50 (the source's name)
[17] = system: Tequatrovirus T4; test: Apparent binding constant to T4 coliphage DNA was evaluated by measuring the loss of ethidium fluorescence; format: functional
[18] = system: NCI-H23; test: Cytotoxicity against the NCI-H23 Non-Small Cell Lung Cancer cell line from human cancer.; format: functional; details: read-out: LC50 (the source's name)
[19] = system: DMS-114; test: Cytotoxicity against the DMS114 Small Cell Lung Cancer cell line from human cancer.; format: functional; details: read-out: LC50 (the source's name)
[20] = system: SF-268; test: Cytotoxicity against the SF-268 CNS Cancer cell line from human cancer.; format: functional; details: read-out: LC50 (the source's name)
[21] = system: RXF 393; test: Cytotoxicity against the RXF-393 Renal Cancer cell line from human cancer.; format: functional; details: read-out: LC50 (the source's name)
[22] = system: SW-620; test: Cytotoxicity against the SW-620 Colon Cancer cell line from human cancer.; format: functional; details: read-out: LC50 (the source's name)
[23] = species on record: Bos taurus; test: Apparent binding constant to calf thymus DNA was evaluated by measuring the loss of ethidium fluorescence
[24] = system: DMS-273; test: Cytotoxicity against the DMS273 Small Cell Lung Cancer cell line from human cancer.; format: functional; details: read-out: LC50 (the source's name)
[25] = system: EKVX; test: Cytotoxicity against the […] Non-Small Cell Lung Cancer cell line from human cancer; format: functional; details: read-out: LC50 (the source's name)
[26] = system: SN12C; test: Cytotoxicity against the SN12C Renal Cancer cell line from human cancer.; format: functional; details: read-out: LC50 (the source's name)
[27] = system: SNB-75; test: Cytotoxicity against the SNB-75 CNS Cancer cell line from human cancer.; format: functional; details: read-out: LC50 (the source's name)
[28] = system: HL-60; test: Cytotoxicity against the HL-60 (TB) Leukemia cell line from human cancer.; format: functional; details: read-out: LC50 (the source's name)
[29] = system: HOP-62; test: Cytotoxicity against the HOP-62 Non-Small Cell Lung Cancer cell line from human cancer; format: functional; details: read-out: LC50 (the source's name)

CN(C)CCNC(=O)c1nc(NC(=O)c2nc(NC(=O)C(Cl)Cl)cn2C)cn1C
IC50 [1]: > 500 µM

N[C@@H](Cc1ccc(N(CCCl)CCCl)cc1)C(=O)O [MELPHALAN]
IC50 [1]: 35 µM

CCBr
K app [2]: 9.5e+06 M⁻¹

CN(C)CCNC(=O)c1nc(NC(=O)c2nc(NC(=O)c3nc(NC(=O)c4ccc(N(CCCl)CCCl)cc4)cn3C)cn2C)cn1C
CC50 [3]: 0.58 µM
CC50 [4]: 0.72 µM
CC50 [5]: 0.97 µM
CC50 [6]: 0.91 µM
CC50 [7]: 0.96 µM
CC50 [8]: 0.83 µM
CC50 [9]: 0.56 µM
CC50 [10]: 0.61 µM
CC50 [11]: 0.5 µM
K app [12]: 495000 M⁻¹
CC50 [13]: 0.98 µM
CC50 [14]: 2.63 µM
CC50 [15]: 0.68 µM
CC50 [16]: 0.65 µM
IC50 [1]: 0.3 µM
K app [17]: 168000 M⁻¹
CC50 [18]: 0.96 µM
CC50 [19]: 0.54 µM
CC50 [20]: 0.77 µM
CC50 [21]: 0.66 µM
CC50 [22]: 0.79 µM
K app [2]: 950000 M⁻¹
K app [23]: 591000 M⁻¹
CC50 [24]: 0.99 µM
CC50 [25]: 0.88 µM
CC50 [26]: 0.61 µM
CC50 [27]: 0.61 µM
CC50 [28]: 0.72 µM
CC50 [29]: 1.17 µM

CN(C)CCNC(=O)c1nc(NC(=O)c2nc(NC(=O)C3CC3)cn2C)cn1C
IC50 [1]: > 500 µM

CN(C)CCNC(=O)c1nc(NC(=O)c2nc(NC(=O)c3nc(NC=O)cn3C)cn2C)cn1C
K app [12]: 613000 M⁻¹
K app [17]: 667000 M⁻¹
K app [2]: 594000 M⁻¹
K app [23]: 774000 M⁻¹

CN(C)CCNC(=O)c1nc(NC(=O)c2nc(NC=O)cn2C)cn1C
K app [12]: 23000 M⁻¹
IC50 [1]: > 500 µM
K app [17]: 40000 M⁻¹
K app [2]: 17000 M⁻¹
K app [23]: 32000 M⁻¹

CN(C)CCNC(=O)c1nc(NC=O)cn1C
K app [12]: 2000 M⁻¹
K app [23]: 25000 M⁻¹

Cn1cc(NC(=O)c2cc(NC(=O)c3cc(NC=O)cn3C)cn2C)cc1C(=O)NCCC(=N)N [STALLIMYCIN]
K app [12]: 203000 M⁻¹
K app [17]: 650000 M⁻¹
K app [2]: 3.48e+07 M⁻¹
K app [23]: 774000 M⁻¹

CN(C)CCNC(=O)c1nc(NC(=O)c2nc(NC(=O)CBr)cn2C)cn1C
IC50 [1]: 400 µM

CN(C)CCNC(=O)c1nc(NC(=O)c2nc(NC(=O)CCl)cn2C)cn1C
IC50 [1]: 350 µM

CN(C)CCNC(=O)c1nc(NC(=O)c2nc(NC(=O)c3ccc(N(CCCl)CCCl)cc3)cn2C)cn1C
CC50 [3]: 17.2 µM
CC50 [4]: 56 µM
CC50 [5]: 5.88 µM
CC50 [6]: 5.69 µM
CC50 [7]: 47 µM
CC50 [8]: 52.9 µM
CC50 [9]: 5.64 µM
CC50 [10]: 34.2 µM
CC50 [11]: 6.73 µM
K app [12]: 455000 M⁻¹
CC50 [13]: 18.1 µM
CC50 [14]: 6.14 µM
CC50 [15]: 33.7 µM
CC50 [16]: 7.17 µM
IC50 [1]: 12.5 µM
K app [17]: 236000 M⁻¹
CC50 [18]: 47.1 µM
CC50 [19]: 5.83 µM
CC50 [20]: 50 µM
CC50 [21]: 50.3 µM
CC50 [22]: 9.95 µM
K app [2]: 475000 M⁻¹
K app [23]: 456000 M⁻¹
CC50 [25]: 47.5 µM
CC50 [26]: 15.6 µM
CC50 [27]: 41 µM
CC50 [28]: 7.84 µM
CC50 [29]: 52.3 µM
